Literature values as cited in US8680301B2, “Lipase activity inhibitors containing high-molecular weight polyphenol fractions, tea extracts, and processes for producing the same” (Suntory Holdings Limited, priority 2004, dated 2014).

Details: clinical reports

SMILES | Reported side effects
OC1(c2ccc(Cl)cc2)c2ccccc2C2=NCCN21 (centres unmarked) [Mazindole®] | side effects such as excessive thirst (mouth dryness), constipation, epigastric distress, nausea and vomiting
CCCCCCCCCCC[C@@H](C[C@@H]1OC(=O)[C@H]1CCCCCC)OC(=O)[C@H](CC(C)C)NC=O [Xenical®] | side effects such as fatty stool, increased stool frequency, soft stool, diarrhea and stomachache
